Data published in patent US20240350503A1, “COMPOUNDS FOR TREATMENT OF VIRAL INFECTIONS BY NEUROTROPIC VIRUS” (priority 2021, published 2024).
Entries after “also recorded” stand apart in the source; their conditions may differ.

Test system: SARS-CoV-2
Assay type: cell-based, SARS-CoV-2 alpha variant

SMILES: c1ccc(-c2ccc(CNc3nc(-c4ccccn4)nnc3-c3ccccc3)cc2)cc1 [ML228]
- SARS-CoV-2 replication (virus N2 RNA level): strongly reduced; also recorded: significantly decreased
